Reference: ChEMBL document CHEMBL4257591 (J Med Chem, 2018)
Converted amounts (≈) assume the structure as drawn. The source made the active and inactive calls. No cut-off for these calls is given here. Starred links: 1 amine or outer side, 2 acyl side, 3 side chain; linkers in the order of their positions; H or OH if unused. Positions of bridges follow the written chain, without caps; N, C: chain ends. Non-standard residues stand in square brackets, D forms with d. Residues, ends and D or L forms follow the SMILES beside them. *: point of attachment. X1 = NC(=O)C[C@@H](C(=O)[*:2])N(c1ccc2c(c1)C(=O)OC21c2ccc(O)cc2Oc2cc(O)ccc21)[*:1]; FITC = O=C1OC2(c3ccc(O)cc3Oc3cc(O)ccc32)c2ccc(NC(=S)*)cc21; Ahx = NCCCCCC(=O)O

How the values were obtained:
Escherichia coli [1] = experiment: Antimicrobial activity against Escherichia coli KCTC 1682 after 18 hrs; assay type: functional; conditions: KCTC 1682, 18 h
Salmonella typhimurium = experiment: Antimicrobial activity against Salmonella typhimurium KCTC 1926 after 18 hrs; assay type: functional, Salmonella enterica subsp. enterica serovar Typhimurium; conditions: Salmonella enterica, KCTC 1926, 18 h
Pseudomonas aeruginosa [2] = experiment: Antimicrobial activity against Pseudomonas aeruginosa KCTC 1637 after 18 hrs; assay type: functional; conditions: KCTC 1637, 18 h
Bacillus subtilis = experiment: Antimicrobial activity against Bacillus subtilis KCTC 3068 after 18 hrs; assay type: functional; conditions: KCTC 3068, 18 h
Staphylococcus aureus [3] = experiment: Antimicrobial activity against Staphylococcus aureus KCTC 1621 after 18 hrs; assay type: functional; conditions: KCTC 1621, 18 h
[4] = system: Staphylococcus epidermidis; experiment: Antimicrobial activity against Staphylococcus epidermidis KCTC 1617 after 18 hrs; assay type: functional; conditions: KCTC 1617, 18 h
Staphylococcus aureus [5] = experiment: Antimicrobial activity against methicillin-resistant Staphylococcus aureus CCARM 3089 after 18 hrs; assay type: functional; conditions: CCARM 3089, 18 h
Staphylococcus aureus [6] = experiment: Antimicrobial activity against methicillin-resistant Staphylococcus aureus CCARM 3090 after 18 hrs; assay type: functional; conditions: CCARM 3090, 18 h
Staphylococcus aureus [7] = experiment: Antimicrobial activity against methicillin-resistant Staphylococcus aureus CCARM 3095 after 18 hrs; assay type: functional; conditions: CCARM 3095, 18 h
Enterococcus faecium = experiment: Antimicrobial activity against vancomycin-resistant Enterococcus faecium ATCC 51559 after 18 hrs; assay type: functional; conditions: ATCC 51559, 18 h
Pseudomonas aeruginosa [8] = experiment: Antimicrobial activity against multidrug-resistant Pseudomonas aeruginosa CCARM 2095 after 18 hrs; assay type: functional; conditions: CCARM 2095, 18 h
Staphylococcus aureus [9] = experiment: Bactericidal activity against Staphylococcus aureus KCTC 1621 at MIC concentration after 30 mins by time kill assay; assay type: functional, organism-based
Escherichia coli [10] = experiment: Bactericidal activity against Escherichia coli KCTC 1682 at MIC concentration after 120 to 180 mins by time kill assay; assay type: functional, organism-based
Staphylococcus aureus [11] = experiment: Induction of cytoplasmic membrane depolarization in Staphylococcus aureus KCTC 1621 at 2 to 8 times MIC concentration by DiSC3(5)-dye based fluorescence spectrophotometry; assay type: functional, organism-based
Staphylococcus aureus [12] = experiment: Induction of membrane permeabilization in Staphylococcus aureus KCTC 1621 at 2 to 8 times MIC concentration up to 300 secs by SYTOX green uptake assay; assay type: functional, organism-based
Escherichia coli [13] = experiment: Induction of membrane permeabilization in Escherichia coli KCTC 1682 assessed as PI-positive cells at 25 uM after 1 to 2 hrs by propidium iodide-staining based flow cytometry (reference value: 2.36%); assay type: functional
DNA = experiment: Binding affinity to Escherichia coli pBR322 DNA assessed as inhibition of DNA migration at 32 uM after 1 hr by agarose gel electrophoresis and UV spectroscopy; assay type: nucleic-acid assay
[14] = Hemolytic activity in sheep RBC assessed as free hemoglobin level up to 256 uM by ELISA relative to control; assay type: ADME, cell-based, Ovis aries, Erythrocyte; conditions: sheep red blood cells (erythrocytes), read-out: Activity
RAW264.7 = experiment: Cytotoxicity against mouse RAW264.7 cells at 512 uM after 48 hrs by MTT assay; assay type: cell-based; conditions: raw264.7, 48 h
Escherichia coli [15] = experiment: Induction of membrane permeabilization in Escherichia coli KCTC 1682 assessed as PI-positive cells at 16 uM after 1 to 2 hrs by propidium iodide-staining based flow cytometry (reference value: 2.36%); assay type: functional
[16] = Drug uptake in Staphylococcus aureus KCTC 1621 cytoplasm at 30 uM after 20 mins using FITC-labeled compound by confocal laser-scanning microscopy; assay type: ADME
[17] = Drug uptake in Escherichia coli KCTC 1682 cytoplasm at 30 uM after 20 mins using FITC-labeled compound by confocal laser-scanning microscopy; assay type: ADME
Escherichia coli [18] = experiment: Antimicrobial activity against Escherichia coli KCTC 1682 after 18 hrs using FITC-labelled compound; assay type: functional
Staphylococcus aureus [19] = experiment: Antimicrobial activity against Staphylococcus aureus KCTC 1621 after 18 hrs using FITC-labelled compound; assay type: functional
Staphylococcus aureus [20] = experiment: Drug penetration in Staphylococcus aureus KCTC 1621 at MIC concentration after 20 mins using FITC-labelled compounds by confocal laser-scanning microscopy; assay type: ADME, organism-based; conditions: in vivo
Escherichia coli [21] = experiment: Drug penetration in Escherichia coli KCTC 1682 at MIC concentration after 20 mins using FITC-labelled compounds by confocal laser-scanning microscopy; assay type: ADME, organism-based; conditions: in vivo

Row | Drug uptake [16] | Drug uptake [17] | SMILES | MIC (Escherichia coli [1]) [µM] | MIC (Salmonella typhimurium) [µM] | MIC (Pseudomonas aeruginosa [2]) [µM] | MIC (Bacillus subtilis) [µM] | MIC (Staphylococcus aureus [3]) [µM] | MIC [4] [µM] | MIC (Staphylococcus aureus [5]) [µM] | MIC (Staphylococcus aureus [6]) [µM] | MIC (Staphylococcus aureus [7]) [µM] | MIC (Enterococcus faecium) [µM] | MIC (Pseudomonas aeruginosa [8]) [µM] | Activity (Staphylococcus aureus [11]) | Activity (Staphylococcus aureus [12]) | further results
1 |  |  | CC[C@H](C)[C@@H]1NC(=O)[C@H]([C@@H](C)O)NC(=O)[C@H](Cc2cnc[nH]2)NC(=O)[C@H](CCCNC(=N)N)NC(=O)[C@H](C)NC(=O)[C@H](CCCNC(=N)N)NC(=O)[C@H](CC(C)C)NC(=O)[C@H](CO)NC(=O)[C@H](C)NC(=O)[C@@H](NC(=O)[C@H](CC(C)C)NC(=O)[C@@H](N)CC(N)=O)CSSC[C@@H](C(=O)N[C@@H](CCCNC(=N)N)C(=O)N[C@@H](CCCCN)C(=O)N[C@@H](Cc2ccccc2)C(=O)NCC(=O)N[C@@H](CCCNC(=N)N)C(=O)N[C@@H](CCCNC(=N)N)C(N)=O)NC(=O)[C@H](CCC(N)=O)NC(=O)[C@@H]2CCCN2C1=O (H-NLCASLRARHTIPQCRKFGRR-NH2; disulfide 3-15) | 12.5 (≈ 31 µg/mL) | 12.5 (≈ 31 µg/mL) | 12.5 (≈ 31 µg/mL) | 12.5 (≈ 31 µg/mL) | 12.5 (≈ 31 µg/mL) | 12.5 (≈ 31 µg/mL) | 12.5 (≈ 31 µg/mL) | 25 (≈ 62 µg/mL) | 12.5 (≈ 31 µg/mL) | 25 (≈ 62 µg/mL) | 50 (≈ 124 µg/mL) | inactive | inactive | Activity (Staphylococcus aureus [9]): Active; Activity (Escherichia coli [10]): Active; Activity (Escherichia coli [13]): 6.39%; Activity (DNA): Active; hemolysis [14]: < 1%; Activity (RAW264.7): Non-Toxic
2 |  |  | CC[C@H](C)[C@H](NC(=O)[C@H](CCCCN)NC(=O)[C@H](CCC(=O)O)NC(=O)[C@H](CCCCN)NC(=O)[C@H](CO)NC(=O)[C@H](CCCCN)NC(=O)[C@H](CCCNC(=N)N)NC(=O)[C@H](Cc1ccccc1)NC(=O)[C@H](Cc1ccccc1)NC(=O)[C@H](CC(=O)O)NC(=O)CNC(=O)[C@H](CC(C)C)NC(=O)[C@@H](N)CC(C)C)C(=O)NCC(=O)N[C@@H](CCCCN)C(=O)N[C@@H](CCC(=O)O)C(=O)N[C@@H](Cc1ccccc1)C(=O)N[C@@H](CCCCN)C(=O)N[C@@H](CCCNC(=N)N)C(=O)N[C@H](C(=O)N[C@H](C(=O)N[C@@H](CCC(N)=O)C(=O)N[C@@H](CCCNC(=N)N)C(=O)N[C@H](C(=O)N[C@@H](CCCCN)C(=O)N[C@@H](CC(=O)O)C(=O)N[C@@H](Cc1ccccc1)C(=O)N[C@@H](CC(C)C)C(=O)N[C@@H](CCCNC(=N)N)C(=O)N[C@@H](CC(N)=O)C(=O)N[C@@H](CC(C)C)C(=O)N[C@H](C(=O)N1CCC[C@H]1C(=O)N[C@@H](CCCNC(=N)N)C(=O)N[C@H](C(=O)N[C@@H](CCC(=O)O)C(=O)N[C@@H](CO)C(=O)O)[C@@H](C)O)C(C)C)[C@@H](C)CC)C(C)C)[C@@H](C)CC [CATHELICIDIN] |  |  |  |  |  |  |  |  |  |  |  |  |  | Activity (Escherichia coli [15]): 75.38%
3 | Active | Active | CC[C@H](C)[C@@H]1NC(=O)[C@H]([C@@H](C)O)NC(=O)[C@H](Cc2cnc[nH]2)NC(=O)[C@H](CCCNC(=N)N)NC(=O)[C@H](C)NC(=O)[C@H](CCCNC(=N)N)NC(=O)[C@H](CC(C)C)NC(=O)[C@H](CO)NC(=O)[C@H](C)NC(=O)[C@@H](NC(=O)[C@H](CC(C)C)NC(=O)[C@H](CC(N)=O)NC(=O)CCCCCNC(=S)Nc2ccc3c(c2)C(=O)OC32c3ccc(O)cc3Oc3cc(O)ccc32)CSSC[C@@H](C(=O)N[C@@H](CCCNC(=N)N)C(=O)N[C@@H](CCCCN)C(=O)N[C@@H](Cc2ccccc2)C(=O)NCC(=O)N[C@@H](CCCNC(=N)N)C(=O)N[C@@H](CCCNC(=N)N)C(N)=O)NC(=O)[C@H](CCC(N)=O)NC(=O)[C@@H]2CCCN2C1=O ({FITC-Ahx}-NLCASLRARHTIPQCRKFGRR-NH2; disulfide 3-15) |  |  |  |  |  |  |  |  |  |  |  |  |  | MIC (Escherichia coli [18]; KCTC 1682, 18 h): 12.5 µM (≈ 37.3 µg/mL); MIC (Staphylococcus aureus [19]; KCTC 1621, 18 h): 12.5 µM (≈ 37.3 µg/mL)
4 |  |  | CC[C@H](C)[C@H](NC(=O)[C@@H](NC(=O)[C@H](Cc1cnc[nH]1)NC(=O)[C@H](CCCNC(=N)N)NC(=O)[C@H](C)NC(=O)[C@H](CCCNC(=N)N)NC(=O)[C@H](CC(C)C)NC(=O)[C@H](CO)NC(=O)[C@H](C)NC(=O)[C@H](CC(C)C)NC(=O)[C@@H](N)CC(N)=O)[C@@H](C)O)C(=O)N1CCC[C@H]1C(=O)N[C@@H](CCC(N)=O)C(=O)N[C@@H](CCCNC(=N)N)C(=O)N[C@@H](CCCCN)C(=O)N[C@@H](Cc1ccccc1)C(=O)NCC(=O)N[C@@H](CCCNC(=N)N)C(=O)N[C@@H](CCCNC(=N)N)C(N)=O (H-NLASLRARHTIPQRKFGRR-NH2) | 6.3 (≈ 14.3 µg/mL) | 6.3 (≈ 14.3 µg/mL) | 6.3 (≈ 14.3 µg/mL) | 6.3 (≈ 14.3 µg/mL) | 12.5 (≈ 28.5 µg/mL) | 6.3 (≈ 14.3 µg/mL) | 12.5 (≈ 28.5 µg/mL) | 25 (≈ 56.9 µg/mL) | 25 (≈ 56.9 µg/mL) | 50 (≈ 114 µg/mL) | 25 (≈ 56.9 µg/mL) | inactive | inactive | 
5 |  |  | CC[C@H](C)[C@H](NC(=O)[C@@H](NC(=O)[C@H](Cc1cnc[nH]1)NC(=O)[C@H](CCCNC(=N)N)NC(=O)[C@H](C)NC(=O)[C@H](CCCNC(=N)N)NC(=O)[C@H](CC(C)C)NC(=O)[C@H](CO)NC(=O)[C@H](C)NC(=O)[C@H](CS)NC(=O)[C@H](CC(C)C)NC(=O)[C@@H](N)CC(N)=O)[C@@H](C)O)C(=O)N1CCC[C@H]1C(=O)N[C@@H](CCC(N)=O)C(=O)N[C@@H](CS)C(=O)N[C@@H](CCCNC(=N)N)C(=O)N[C@@H](CCCCN)C(=O)N[C@@H](Cc1ccccc1)C(=O)NCC(=O)N[C@@H](CCCNC(=N)N)C(=O)N[C@@H](CCCNC(=N)N)C(N)=O (H-NLCASLRARHTIPQCRKFGRR-NH2) | 12.5 (≈ 31 µg/mL) | 12.5 (≈ 31 µg/mL) | 12.5 (≈ 31 µg/mL) | 12.5 (≈ 31 µg/mL) | 12.5 (≈ 31 µg/mL) | 12.5 (≈ 31 µg/mL) | 12.5 (≈ 31 µg/mL) | 25 (≈ 62.1 µg/mL) | 12.5 (≈ 31 µg/mL) | 25 (≈ 62.1 µg/mL) | 50 (≈ 124 µg/mL) | inactive | inactive | 
6 | Active | Active | CC[C@H](C)[C@H](NC(=O)[C@@H](NC(=O)[C@H](Cc1cnc[nH]1)NC(=O)[C@H](CCCNC(=N)N)NC(=O)[C@H](C)NC(=O)[C@H](CCCNC(=N)N)NC(=O)[C@H](CC(C)C)NC(=O)[C@H](CO)NC(=O)[C@H](C)NC(=O)[C@H](CO)NC(=O)[C@H](CC(C)C)NC(=O)[C@H](CC(N)=O)Nc1ccc2c(c1)C(=O)OC21c2ccc(O)cc2Oc2cc(O)ccc21)[C@@H](C)O)C(=O)N1CCC[C@H]1C(=O)N[C@@H](CCC(N)=O)C(=O)N[C@@H](CO)C(=O)N[C@@H](CCCNC(=N)N)C(=O)N[C@@H](CCCCN)C(=O)N[C@@H](Cc1ccccc1)C(=O)NCC(=O)N[C@@H](CCCNC(=N)N)C(=O)N[C@@H](CCCNC(=N)N)C(N)=O (H-[X1]LSASLRARHTIPQSRKFGRR-NH2) |  |  |  |  |  |  |  |  |  |  |  |  |  | Drug uptake (Staphylococcus aureus [20]): Active; Drug uptake (Escherichia coli [21]): Active; Activity (Escherichia coli [18]): Active; Activity (Staphylococcus aureus [19]): Active
